Data from patent publication US20200338045A1, “ISOINDOLINE COMPOSITIONS AND METHODS FOR TREATING NEURODEGENERATIVE DISEASE” (priority 2017, published 2020).
Entries after “also recorded” stand apart in the source; their conditions may differ. Where two headings read alike, the source gives them in different places. Marks after values point to notes of the source that are not given here.

Assays:
Format in all cases: in vivo, human
[1] = system: neurogranin, Aβ, tau, NFL in CSF; assay: CSF Alzheimer's disease biomarkers by ELISA (COG0102); details: for neurogranin reduced: 28 days
Experimental: This trial (ClinicalTrials.gov NCT02907567) was a randomized, double-blind, placebo-controlled clinical trial in mild to moderate Alzheimer's patients (MMSE 18-26) (See FIG. 1 for clinical trial design). The trial was conducted at six sites in Australia. Patients were randomized into placebo (n=5) or CT1812-treated groups: 90 mg (n=4), 280 mg (n=5) or 560 mg (n=5) and treated once daily for 28 days. Clinical chemistry was done at Sydpath (Sydney, AU). Pharmacokinetics were done at CPR Pharma Services (Adelaide, AU). Cerebrospinal fluid samples were taken at screening and day 21-28 of treatment and aliquoted. Plasma samples were taken at screening or Day 1 (one sample) and day 14-28, then spun down to separate plasma and aliquoted. One set of CSF samples was analyzed for Alzheimer's disease biomarkers; protein measurements (Aβ42, A1340, total tau, tau phosphorylated at threonine 181 (phosphorylated tau), NFL and neurogranin) were performed using commercially available ELISA assays from Fujirebio according to the manufacturer's instructions (INNOTEST β-AMYLOID(1-42), INNOTEST β-AMYLOID(1-40), INNOTEST hTau Ag, INNOTEST PHOSPHO-TAU(181P), Uman Diagnostics NFL assay). Neurogranin was measured with a sandwich ELISA method using antibodies Ng2 and Ng22 developed at the University of Gotteborg (Kvartsberg et al. 2015). Identical aliquots of CSF, and plasma were analyzed for protein expression changes via LC/MSMS at Caprion (see below).

[2] = Phase 1 multiple ascending dose (MAD) plasma pharmacokinetics; details: for Cmax / AUC(0-t) / Tmax / half-life: human, plasma, oral; for AUC(0-t): read-out: AUC0-24h (mean)
Experimental: In Part B, healthy young subjects in each cohort received the same dose once daily for 14 days after overnight fasting. Cohort dosing started at 280 mg, followed by 560 mg and 840 mg in subsequent cohorts. In each cohort, eight subjects received drug and two received placebo. A fourth cohort of healthy elderly subjects (≥65 years old) received a 560 mg dose vs. placebo daily for 14 days (seven active, two placebo).
In Part A, blood draws for assessment of PK parameters occurred pre-dose and at 15, 30, 45, 60, and 90 minutes post dose as well as at 2, 3, 4, 8, 12, 24, 36, and 48 hours post dose. […] In Part B, blood samples for plasma PK analysis were taken on Day 1 at pre-dose and at 2 hours post-dose, on Day 3 at pre-dose and at 15, 30 and 45 minutes and 1, 2, 3, 4, 8, 12 and 24 hours post-dose, on Days 4, 6, 8 and 10 at pre-dose and at 1.5 hours post-dose and following the final dose on Day 14 at pre-dose and 15, 30 and 45 minutes and 1, 2, 4, 8, 12, 24, 36 and 48 hours post-dose.
This was assessed by analysis of variance (ANOVA) of log-transformed Cmax, AUC0-24, AUC0-48, and/or AUC0-inf, using a model with factors for treatment (fed status or age [young vs. elderly] status) and subject within sequence. Treatment mean differences and 90% confidence intervals of the log transformed PK parameters were back-transformed, to present the geometric least squares means ratios and 90% confidence limits.

[3] = Phase 1 MAD cognitive testing in healthy elderly cohort
Experimental: The Alzheimer's Disease Assessment Scale-Cognition Subscale (ADAS-Cog 13) and a cognitive battery (including the category fluency test, controlled word association test, WMS-R digit span, digit symbol substitution test, and Rey Auditory Verbal Learning Test) were administered to subjects in the elderly cohort at baseline and on Day 14.

[4] = Phase 1 MAD CSF concentration of CT1812; details: for receptor occupancy associated with CSF CT1812 levels: extrapolated from transgenic mouse brain; for concentration at 1.5 h: human, cerebrospinal fluid, oral, 1.5 hr post dose, Day 7 to Day 9
Text: CT1812 was quantitated in CSF using a validated LC-MS/MS method.

[5] = 560 mg daily, Day 14 (steady state)
[6] = 560 mg daily, day 3, geometric least-squares mean
[7] = 280 mg, 280 mg QD, Day 3, age up to 64 years (n = 8)
[8] = 280 mg, 280 mg QD, Day 14, age up to 64 years (n = 8)
[9] = 560 mg, 560 mg QD, Day 3, age at least 65 years (n = 7)
[10] = 560 mg, 560 mg QD, Day 3, age up to 64 years (n = 8)
[11] = 560 mg, 560 mg QD, Day 14, age at least 65 years (n = 7)
[12] = 560 mg, 560 mg QD, Day 14, age up to 64 years (n = 8)
[13] = 840 mg, 840 mg QD, Day 3, age up to 64 years (n = 7)
[14] = 840 mg, 840 mg QD, Day 14, age up to 64 years (n = 7)

CC(C)(C)Oc1cc(CCC(C)(C)N2Cc3ccc(S(C)(=O)=O)cc3C2)ccc1O [CT1812]
neurogranin reduced ([1]; 90 mg dose group): 33%
Neurogranin, With CT1812 ([1]; ELISA, direction of change): reduced and decreased and ↓*
Aβ, tau and NFL biomarker levels ([1]; before and after treatment): remain unchanged
neurogranin reduced ([1]; pooled CT1812-treated group): 17.6%
CLss/F (mean) ([2]; 280 mg QD, Day 14, age up to 64 years (n = 8), unit assumed): 387 L/h
CLss/F (mean) ([2]; 560 mg QD, Day 14, age at least 65 years, n = 7): 169^‡‡
CLss/F (mean) ([2]; 560 mg QD, Day 14, age up to 64 years (n = 8), unit assumed): 296 L/h
AUC0-24h, aged cohort vs younger subjects [2, 5]: 1.5 times
Cmax, aged cohort vs younger subjects [2, 5]: 1.6 times
AUC0-24h, aged cohort vs subjects under 64 years [2, 6]: ~1.34 times
Cmax, aged cohort vs subjects under 64 years [2, 6]: approximately 1.7 times
CLss/F (mean) ([2]; 840 mg QD, Day 14, age up to 64 years, n = 7): 212^‡‡
Cmax and AUC / plasma concentration vs dose ([2]; MAD 280 to 840 mg): slightly greater than dose proportionally
accumulation with repeat dosing ([2]; Q.D. over 14 days): minimal accumulation
Cmax [2, 7]: 238 ng/mL
AUC(0-t) [2, 7]: 851 ng·h/mL
Tmax ([2]; 280 mg, 280 mg QD, Day 3, age up to 64 years (n = 8), read-out: Tmax (median)): 1.5 h
half-life ([2]; 280 mg, 280 mg QD, Day 3, age up to 64 years, n = 6, over max 24 hours post dose, read-out: t1/2 (mean) (converted)): 8.97 h
Cmax [2, 8]: 431 ng/mL
AUC(0-t) [2, 8]: 1060 ng·h/mL
Tmax ([2]; 280 mg, 280 mg QD, Day 14, age up to 64 years (n = 8), read-out: Tmax (median)): 0.88 h
half-life ([2]; 280 mg, 280 mg QD, Day 14, age up to 64 years (n = 8), read-out: t1/2 (mean) (converted)): 12 h
Cmax [2, 9]: 567 ng/mL
AUC(0-t) [2, 9]: 3330 ng·h/mL
Tmax ([2]; 560 mg, 560 mg QD, Day 3, age at least 65 years (n = 7), read-out: Tmax (median)): 2 h
half-life ([2]; 560 mg, 560 mg QD, Day 3, age at least 65 years, n = 4, over max 24 hours post dose, read-out: t1/2 (mean) (converted)): 8.83 h
Cmax [2, 10]: 407 ng/mL
AUC(0-t) [2, 10]: 1940 ng·h/mL
Tmax ([2]; 560 mg, 560 mg QD, Day 3, age up to 64 years (n = 8), read-out: Tmax (median)): 2 h
half-life ([2]; 560 mg, 560 mg QD, Day 3, age up to 64 years, n = 2, over max 24 hours post dose, read-out: t1/2 (mean) (converted)): 8.56 h
Cmax [2, 11]: 853 ng/mL
AUC(0-t) [2, 11]: 4450 ng·h/mL
Tmax ([2]; 560 mg, 560 mg QD, Day 14, age at least 65 years (n = 7), read-out: Tmax (median)): 1 h
half-life ([2]; 560 mg, 560 mg QD, Day 14, age at least 65 years (n = 7), read-out: t1/2 (mean) (converted)): 12.8 h
Cmax [2, 12]: 651 ng/mL
AUC(0-t) [2, 12]: 2810 ng·h/mL
Tmax ([2]; 560 mg, 560 mg QD, Day 14, age up to 64 years (n = 8), read-out: Tmax (median)): 2 h
half-life ([2]; 560 mg, 560 mg QD, Day 14, age up to 64 years (n = 8), read-out: t1/2 (mean) (converted)): 12.3 h
Cmax [2, 13]: 813 ng/mL
AUC(0-t) [2, 13]: 3610 ng·h/mL
Tmax ([2]; 840 mg, 840 mg QD, Day 3, age up to 64 years (n = 7), read-out: Tmax (median)): 2 h
half-life ([2]; 840 mg, 840 mg QD, Day 3, age up to 64 years, n = 5, over max 24 hours post dose, read-out: t1/2 (mean) (converted)): 9.39 h
Cmax [2, 14]: 991 ng/mL
AUC(0-t) [2, 14]: 4990 ng·h/mL
Tmax ([2]; 840 mg, 840 mg QD, Day 14, age up to 64 years (n = 7), read-out: Tmax (median)): 2 h
half-life ([2]; 840 mg, 840 mg QD, Day 14, age up to 64 years, n = 6, read-out: t1/2 (mean) (converted)): 8.93 h
half-life ([2]; MAD, read-out: average terminal half-life at steady state (converted)): ~12 h
Tmax ([2]; part B (MAD), 280-840 mg, read-out: Tmax in plasma, range over doses): 0.88 to 2 h
cognitive scores before vs after treatment ([3]; healthy elderly cohort, 560 mg, day zero vs day 14): similar
COWAT (Trial 2), Mean (SD) ([3]; healthy elderly, 560 mg for 14 days (N = 7), Day 14, Day 0: 9.6 (4.2)): 10.6 (5.1)
COWAT (Trial 1), Mean (SD) ([3]; healthy elderly, 560 mg for 14 days (N = 7), Day 14, Day 0: 11.3 (5.7)): 12.6 (4.5)
COWAT (Trial 3), Mean (SD) ([3]; healthy elderly, 560 mg for 14 days (N = 7), Day 14, Day 0: 14.6 (5.7)): 15.1 (3.7)
RAVLT, Mean (SD) ([3]; healthy elderly, 560 mg for 14 days (N = 7), Day 14, Day 0: 17.3 (3.9)): 18.7 (3.1)
WMS-R (Digit Span), Mean (SD) ([3]; healthy elderly, 560 mg for 14 days (N = 7), Day 14, Day 0: 17.9 (3.3)): 17.9 (3.3)
CFT, Mean (SD) ([3]; healthy elderly, 560 mg for 14 days (N = 7), Day 14, Day 0: 18.4 (5.5)): 19.7 (2.4)
DSST, Mean (SD) ([3]; healthy elderly, 560 mg for 14 days (N = 7), Day 14, Day 0: 78.3 (11.0)): 80 (9.6)
receptor occupancy associated with CSF CT1812 levels ([4]; 560 mg dose): 95%
projected receptor occupancy at average CSF concentrations ([4]; 560 mg-840 mg dose range, 1.5 hr post-dose, equivalent mouse brain concentration): 97-98%
receptor occupancy associated with CSF CT1812 levels ([4]; 840 mg dose): 98%
CSF CT1812 concentration vs dose ([4]; MAD 560 and 840 mg, at peak plasma concentrations): dose-dependent manner; also recorded: dose-dependent increases
blood-brain barrier penetration in humans ([4]; from CT1812 levels in CSF): penetrates the blood-brain barrier
concentration at 1.5 h ([4]; 560 mg daily): 8 ng/mL
concentration at 1.5 h ([4]; 840 mg daily): 23.3 ng/mL
